Reference: patent publication US20260317319A1, “NOVEL ERGOLINES AND METHODS OF TREATING MOOD DISORDERS” (Gilgamesh Pharma Inc., priority 2023, published 2026)
Read-outs that look alike come from different tables or passages of the source.

Assays:
[1] = in vitro; assay type: in vitro ADME, human
[2] = target: T1, 5-HT2A receptor (Homo sapiens, UniProt P28223); experiment: cell-based; assay type: cell-based; conditions: agonist, beta-arrestin recruitment; for Emax: max dose, read-out: 5-HT2A Arrestin % Act @ Max Dose; for EC50: PathHunter, read-out: 5-HT2A Arrestin EC50
T1 sequence (P28223 whole entry, the tested form may be a part): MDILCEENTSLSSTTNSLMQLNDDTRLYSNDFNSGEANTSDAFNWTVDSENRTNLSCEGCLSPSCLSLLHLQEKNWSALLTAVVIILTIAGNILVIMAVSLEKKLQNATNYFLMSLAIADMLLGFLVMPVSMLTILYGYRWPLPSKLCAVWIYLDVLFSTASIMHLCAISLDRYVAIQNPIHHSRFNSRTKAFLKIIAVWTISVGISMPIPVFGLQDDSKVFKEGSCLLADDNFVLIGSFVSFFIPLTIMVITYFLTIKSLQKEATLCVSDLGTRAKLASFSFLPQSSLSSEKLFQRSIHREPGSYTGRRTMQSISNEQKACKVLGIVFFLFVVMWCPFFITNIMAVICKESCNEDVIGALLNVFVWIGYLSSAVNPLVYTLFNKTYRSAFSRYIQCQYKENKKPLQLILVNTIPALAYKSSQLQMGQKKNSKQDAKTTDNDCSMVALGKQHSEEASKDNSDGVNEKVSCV
Summary of the method: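 PathHunter β-arrestin recruitment (enzyme fragment complementation): 5-HT2A fused to ProLink donor in cells co-expressing β-arrestin–β-galactosidase acceptor, seeded and held at 37° C before testing. Chemiluminescent read-out; agonist % activity = (sample RLU − vehicle)/(max control ligand − vehicle) × 100.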

[3] = in vitro; assay type: in vitro ADME, rat
Source text: RLM Stability Pooled RLM from male Sprague-Dawley rats (Xenotech R1000) were used.

[4] = in vitro; assay type: in vitro ADME, mouse
Source text: MLM Stability Pooled MLM from male CD-1 mice (BIOIVT M00501) were used.

[5] = target: T1, 5-HT2A receptor; experiment: cell-based; assay type: cell-based; set-up: expressed in transfected cells; host or cells: HEK293, stably transfected; conditions: Ca2+ flux; for Emax: HEK293, agonist, HEK293, max dose, read-out: 5-HT2A % Act @ Max Dose
Summary of the method: (§1)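 Receptor agonism was assessed as intracellular calcium mobilization in stably transfected cells, with CHO cells additionally carrying Gα15 for the 5-HT1A readout. Calcium was monitored with Fluo-4 Direct dye.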

[6] = target: T2, 5-HT2B receptor (Homo sapiens, UniProt P41595); experiment: cell-based; assay type: cell-based; conditions: Ca2+ flux; for Emax: HEK293, agonist, HEK293, max dose, read-out: 5-HT2B % Act @ Max Dose
T2 construct: expressed in transfected cells; host or cells: HEK293, stably transfected
T2 sequence (P41595 whole entry): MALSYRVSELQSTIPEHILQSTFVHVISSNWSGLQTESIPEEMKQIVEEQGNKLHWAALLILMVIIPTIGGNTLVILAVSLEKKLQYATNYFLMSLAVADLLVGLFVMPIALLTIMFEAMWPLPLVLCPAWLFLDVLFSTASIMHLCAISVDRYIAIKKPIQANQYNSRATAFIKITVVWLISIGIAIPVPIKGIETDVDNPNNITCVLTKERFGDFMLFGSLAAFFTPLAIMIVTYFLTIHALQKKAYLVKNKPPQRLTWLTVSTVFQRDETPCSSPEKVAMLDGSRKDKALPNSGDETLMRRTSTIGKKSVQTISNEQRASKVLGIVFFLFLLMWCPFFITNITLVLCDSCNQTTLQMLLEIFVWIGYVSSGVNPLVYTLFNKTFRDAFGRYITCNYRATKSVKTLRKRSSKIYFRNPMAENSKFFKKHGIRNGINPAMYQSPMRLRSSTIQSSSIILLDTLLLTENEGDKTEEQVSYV
Summary of the method: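 FLIPR Tetra fluorescence read-out of calcium flux after compound addition. Receptor-expressing stable lines were used (HEK293 for 2A/2B; CHO with Gα15 for 1A), dye-loaded with Fluo-4 Direct and 2.5 mM final probenecid, 50 min at 37 °C.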

[7] = target: T3, 5-HT1B receptor (Homo sapiens, UniProt P28222); experiment: cAMP accumulation functional assay at 5-HT1B; assay type: cell-based; conditions: agonist, cAMP accumulation; for Emax: max dose, read-out: 5-HT1B % Act @ Max Dose
T3 construct: expressed in transfected cells
T3 sequence (P28222 whole entry): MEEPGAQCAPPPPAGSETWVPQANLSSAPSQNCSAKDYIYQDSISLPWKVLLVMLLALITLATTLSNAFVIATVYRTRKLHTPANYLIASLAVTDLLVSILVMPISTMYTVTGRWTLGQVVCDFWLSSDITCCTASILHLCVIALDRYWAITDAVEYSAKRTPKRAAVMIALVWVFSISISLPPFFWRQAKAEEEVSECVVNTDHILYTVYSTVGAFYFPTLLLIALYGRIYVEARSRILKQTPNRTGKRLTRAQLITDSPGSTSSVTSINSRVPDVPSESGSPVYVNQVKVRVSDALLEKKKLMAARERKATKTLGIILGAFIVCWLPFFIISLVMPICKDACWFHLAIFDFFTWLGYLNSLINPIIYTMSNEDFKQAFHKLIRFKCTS
Summary of the method: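 Agonist activity measured as cAMP accumulation in cells stably transfected with human 5-HT1B. Cells incubated 60 min at RT, then detection reagent added for a further 60 min at RT before plate reading.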

[8] = target: T4, 5-HT1A receptor (Homo sapiens, UniProt P08908); experiment: cell-based; conditions: agonist, Ca2+ flux; for Emax: CHO, CHO cells with Gα15, max dose, read-out: 5-HT1A % Act @ Max Dose
T4 construct: expressed in transfected cells; host or cells: CHO cells, stably transfected
T4 sequence (P08908 1-422): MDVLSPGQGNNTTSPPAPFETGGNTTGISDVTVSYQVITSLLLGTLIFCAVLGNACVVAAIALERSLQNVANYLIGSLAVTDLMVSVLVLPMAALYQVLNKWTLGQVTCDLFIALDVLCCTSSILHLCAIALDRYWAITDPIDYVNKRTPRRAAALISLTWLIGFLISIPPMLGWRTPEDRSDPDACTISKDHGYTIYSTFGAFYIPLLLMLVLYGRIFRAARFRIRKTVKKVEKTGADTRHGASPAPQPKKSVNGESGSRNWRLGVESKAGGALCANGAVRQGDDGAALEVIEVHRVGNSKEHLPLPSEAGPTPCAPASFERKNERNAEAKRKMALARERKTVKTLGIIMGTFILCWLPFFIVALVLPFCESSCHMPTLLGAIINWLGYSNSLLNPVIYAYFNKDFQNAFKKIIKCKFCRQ
Summary of the method: as §1

[9] = HLM 0.50 mg/mL, NADPH 1 mM, 1 μM compound, pH 7.4, 37° C., 60 min
[10] = RLM (male Sprague-Dawley) 0.50 mg/mL, NADPH 1 mM, 1 μM compound, pH 7.4, 37° C., 60 min
[11] = MLM (male CD-1) 0.50 mg/mL, NADPH 1 mM, 1 μM compound, pH 7.4, 37° C., 60 min

Row | SMILES | Intrinsic clearance (Clint) [1, 9] | half-life (t1/2) [1, 9] | Emax [2] | Intrinsic clearance (Clint) [3, 10] | half-life (t1/2) [3, 10] | Intrinsic clearance (Clint) [4, 11] | half-life (t1/2) [4, 11] | Emax [5] | Emax [6] | Emax [7] | Emax [8] | EC50 [2] | further results
1 | CCN(CC)C(=O)[C@@H]1C=C2c3cccc4[nH]cc(c34)C[C@H]2N(Cc2ccccc2OC)C1 [Compound 10, (6aR,9R)—N,N-diethyl-7-(2-methoxybenzyl)-4,6,6a,7,8,9-hexahydroindolo[4,3-fg]quinoline-9-carboxamide] | 190.3 µL/min/mg | 7.3 min | 47.1% | 407.4 µL/min/mg | 3.4 min | 1396.8 µL/min/mg | 1 min | 49.4% | 2% | 87.3% | 53% | – | stability in HLM [1]: much lower stability (higher clearance); stability in RLM [3]: much lower stability (higher clearance); stability in MLM [4]: much lower stability (higher clearance)
2 | CCN(CC)C(=O)[C@@H]1C=C2c3cccc4[nH]cc(c34)C[C@H]2N(Cc2cccc(OC)c2)C1 [Compound 18, (6aR,9R)—N,N-diethyl-7-(3-methoxybenzyl)-4,6,6a,7,8,9-hexahydroindolo[4,3-fg]quinoline-9-carboxamide] | 101.7 µL/min/mg | 13.6 min | 89.6% | 262.8 µL/min/mg | 5.3 min | 523.7 µL/min/mg | 2.6 min | 61.1% | 4.69% | 83.3% | 28.9% | 4.27 nM | –
3 | CCN(CC)C(=O)[C@@H]1C=C2c3cccc4[nH]cc(c34)C[C@H]2N(Cc2ccc(OC)cc2)C1 [Compound 19, (6aR,9R)—N,N-diethyl-7-(4-methoxybenzyl)-4,6,6a,7,8,9-hexahydroindolo[4,3-fg]quinoline-9-carboxamide] | 82.7 µL/min/mg | 16.8 min | 42.3% | 139.0 µL/min/mg | 10.0 min | 192.7 µL/min/mg | 7.2 min | 70.5% | 2.44% | 71.1% | -0.65% | 13.5 nM | –
4 | CCN(CC)C(=O)[C@@H]1C=C2c3cccc4[nH]cc(c34)C[C@H]2N(Cc2cccc(O)c2)C1 [Compound 62, (6aR,9R)—N,N-diethyl-7-(3-hydroxybenzyl)-4,6,6a,7,8,9-hexahydroindolo[4,3-fg]quinoline-9-carboxamide] | – | – | 58.4% | – | – | – | – | 81.5% | 9.88% | 46.8% | 22.7% | 10.9 nM | microsomal CLint ([1]; human, microsomes, HLM 0.50 mg/mL, NADPH 1 mM, 1 μM compound, pH 7.4, 37° C., 60 min, read-out: Intrinsic clearance (Clint)): 134 µL/min/mg; half-life ([1]; human, microsomes, HLM 0.50 mg/mL, NADPH 1 mM, 1 μM compound, pH 7.4, 37° C., 60 min, read-out: half-life (t1/2)): 10.3 min; microsomal CLint ([3]; rat, microsomes, RLM (male Sprague-Dawley) 0.50 mg/mL, NADPH 1 mM, 1 μM compound, pH 7.4, 37° C., 60 min, read-out: Intrinsic clearance (Clint)): 214 µL/min/mg; half-life ([3]; rat, microsomes, RLM (male Sprague-Dawley) 0.50 mg/mL, NADPH 1 mM, 1 μM compound, pH 7.4, 37° C., 60 min, read-out: half-life (t1/2)): 6.5 min; microsomal CLint ([4]; mouse, microsomes, MLM (male CD-1) 0.50 mg/mL, NADPH 1 mM, 1 μM compound, pH 7.4, 37° C., 60 min, read-out: Intrinsic clearance (Clint)): 244 µL/min/mg; half-life ([4]; mouse, microsomes, MLM (male CD-1) 0.50 mg/mL, NADPH 1 mM, 1 μM compound, pH 7.4, 37° C., 60 min, read-out: half-life (t1/2)): 5.7 min; EC50 ([5]; agonist, HEK293): 907 nM; EC50 ([6]; agonist, HEK293): > 100000 nM; EC50 [7]: > 10000 nM; EC50 ([8]; CHO cells with Gα15): 12600 nM
